Measurements reported in BindingDB's records for doi:10.1111/j.1747-0285.2012.01362.x (Washington University, 2012).
pIC50: −log10 of the molar value.

Target: T1, PhoP (Salmonella enterica I, UniProt A6XC03)
T1 sequence (A6XC03 whole entry): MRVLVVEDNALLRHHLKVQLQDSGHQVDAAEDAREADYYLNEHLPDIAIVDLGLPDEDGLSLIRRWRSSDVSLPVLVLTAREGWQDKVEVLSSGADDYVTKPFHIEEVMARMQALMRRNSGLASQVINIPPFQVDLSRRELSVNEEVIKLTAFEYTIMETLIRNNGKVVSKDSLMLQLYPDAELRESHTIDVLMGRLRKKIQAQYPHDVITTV
Assay: Inhibition Assay
Description: Inhibition of a protein-protein activity by EMSA assay.

SMILES | pIC50
O=S(=O)(O)c1ccc2c(N=Nc3c(O)ccc4ccccc34)cccc2c1 [NSC45576, 2] | 4.92
O=C1c2ccccc2C(=O)c2c1ccc(C(=O)O)c2-c1cccc2ccccc12 [NSC9608, 1] | 1.96
CC(C)c1ccc2c(c1)CCC1C(C)(CN)CCCC21C (stereo not drawn) [NSC65238, 5] | 4.70
O=C(C[n+]1ccc2ccccc2c1)c1ccc2ccc3ccccc3c2c1 [NSC35489, 4] | 1.85
CC12CCC(=O)C=C1CCC1C2CCC2(C)C(C(=O)COS(=O)(=O)c3ccc(Br)cc3)CCC12 (stereo not drawn) [NSC88915, 6] | 4.77
c1ccc(C[n+]2cccc(-c3cc4ccccc4[nH]3)c2)cc1 [NSC118806, 7] | 3.96
N#Cc1ccc(OC(=O)c2ccc(NC(=N)N)cc2)cc1 [NSC168197, 8] | 3.55
CN(C)CCC(=O)C1(O)CCC2C3CC=C4CC(O)CCC4(C)C3CCC21C (stereo not drawn) [NSC48630, 3] | 5.44
